Active and inactive are the calls of the source. Where only a bound is given, the exact number is not on record here.

In one test the test system is H9c2. The test is described as follows: cells. It counts as functional, cell-based. Conditions: Rattus norvegicus, H9c2, Myocardium.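 Note: confirmatory concentration-response retest of ultra-high-throughput screening hits for modulation of myocardial damage; cell death induced by hydrogen peroxide oxidative stress; compound pretreatment for 60 min then peroxide exposure for 2 h; potency is for protecting the cells against peroxide damage rather than for killing them.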
Test [1] deals with T1, Heat shock factor protein 1 (Mus musculus, UniProt P38532).
T1 sequence (P38532 whole entry): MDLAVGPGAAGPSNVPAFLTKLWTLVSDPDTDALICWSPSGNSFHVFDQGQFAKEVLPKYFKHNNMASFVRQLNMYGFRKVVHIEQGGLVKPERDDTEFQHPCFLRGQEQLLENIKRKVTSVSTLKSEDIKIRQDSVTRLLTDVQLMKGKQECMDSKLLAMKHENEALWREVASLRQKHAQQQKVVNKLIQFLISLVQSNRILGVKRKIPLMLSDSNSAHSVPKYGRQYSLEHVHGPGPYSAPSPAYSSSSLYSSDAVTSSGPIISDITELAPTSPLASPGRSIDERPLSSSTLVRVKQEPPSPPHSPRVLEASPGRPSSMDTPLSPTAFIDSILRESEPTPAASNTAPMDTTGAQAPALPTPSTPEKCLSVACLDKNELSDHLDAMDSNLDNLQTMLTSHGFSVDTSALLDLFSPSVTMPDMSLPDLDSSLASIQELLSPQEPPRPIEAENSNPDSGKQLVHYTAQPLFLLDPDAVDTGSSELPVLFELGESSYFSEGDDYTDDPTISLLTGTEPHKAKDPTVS
Kind of test: decrease of HSF1-responsive luciferase luminescence – cell-based, NIH3T3, dose retest, confirmation (AID 2382).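 Note: NIH3T3 fibroblasts with HSF1-driven luciferase reporter stressed by proteasome inhibitor MG132; luminescence from HSF1-driven luciferase expression after 8 hours of MG132 stress.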 Type of test: functional.

Test [2] in a line: NIH3T3 cell viability loss – ATP luminescence, mouse fibroblasts, counter-screen, dose response (AID 2010).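 Note: cells exposed to compound for about 90 hours before reading.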 Type of test: functional, cell-based. On the technique in general: The purpose of a counterscreen is to sort out artefacts and off-target activity.
Test [3] can be described thus: Trypanosoma cruzi growth suppression in host cells – NIH3T3 host cells, beta-gal luminescence, confirmation (AID 2044).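 Note: intracellular parasites grown in NIH/3T3 mouse fibroblasts as host cells; luminescent beta-galactosidase reporter signal from transgenic T. cruzi replicating inside host cells; inhibitors lower the luminescence signal.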 It counts as functional, cell-based.
The target of test [4] is T2, Ubiquitin-conjugating enzyme E2 N (Homo sapiens, UniProt P61088).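 Note: Dose-response confirmation in a TR-FRET assay detecting UBC13-driven polyubiquitin chain formation, inhibition measured.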
T2 sequence (P61088 whole entry): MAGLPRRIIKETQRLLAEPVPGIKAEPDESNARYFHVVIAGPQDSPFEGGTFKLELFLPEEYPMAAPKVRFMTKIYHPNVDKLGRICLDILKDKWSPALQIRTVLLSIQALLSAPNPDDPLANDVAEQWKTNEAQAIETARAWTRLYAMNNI
Type of test: functional.

For a further test, the target named is T3, Protein skinhead-1 (Caenorhabditis elegans, UniProt P34707).
T3 sequence (P34707 whole entry): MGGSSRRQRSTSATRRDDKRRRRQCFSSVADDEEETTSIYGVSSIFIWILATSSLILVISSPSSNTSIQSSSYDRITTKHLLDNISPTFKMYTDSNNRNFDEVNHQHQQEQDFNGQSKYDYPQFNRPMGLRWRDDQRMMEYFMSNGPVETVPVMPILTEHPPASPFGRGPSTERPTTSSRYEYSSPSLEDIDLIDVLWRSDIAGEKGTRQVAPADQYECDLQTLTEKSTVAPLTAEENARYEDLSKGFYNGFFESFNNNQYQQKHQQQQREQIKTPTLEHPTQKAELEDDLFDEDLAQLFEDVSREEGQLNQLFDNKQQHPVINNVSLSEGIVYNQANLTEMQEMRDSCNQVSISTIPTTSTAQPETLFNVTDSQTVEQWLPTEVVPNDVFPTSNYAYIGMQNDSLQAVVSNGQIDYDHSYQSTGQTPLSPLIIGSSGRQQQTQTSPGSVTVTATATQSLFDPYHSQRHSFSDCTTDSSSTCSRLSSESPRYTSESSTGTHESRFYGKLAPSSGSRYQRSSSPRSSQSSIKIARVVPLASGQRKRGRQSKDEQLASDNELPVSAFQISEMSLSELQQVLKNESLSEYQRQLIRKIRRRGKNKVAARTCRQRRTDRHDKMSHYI
Type of test: functional.

Test [5] can be described thus: Luminescence Cell-Based Dose Confirmation HTS to Identify Inhibitors of Platelet Dense Granule Release. [Related pubchem assays: 1663 (Primary HTS), 1678 (Summary of Project)]. Type of test: functional.
In test [6] the target is Luciferin 4-monooxygenase (Photinus pyralis, UniProt P08659). Kind of test: inhibition of purified Photinus pyralis luciferase – biochemical, luminescence, dose response (AID 1891).
Sequence of Luciferin 4-monooxygenase (P08659 whole entry): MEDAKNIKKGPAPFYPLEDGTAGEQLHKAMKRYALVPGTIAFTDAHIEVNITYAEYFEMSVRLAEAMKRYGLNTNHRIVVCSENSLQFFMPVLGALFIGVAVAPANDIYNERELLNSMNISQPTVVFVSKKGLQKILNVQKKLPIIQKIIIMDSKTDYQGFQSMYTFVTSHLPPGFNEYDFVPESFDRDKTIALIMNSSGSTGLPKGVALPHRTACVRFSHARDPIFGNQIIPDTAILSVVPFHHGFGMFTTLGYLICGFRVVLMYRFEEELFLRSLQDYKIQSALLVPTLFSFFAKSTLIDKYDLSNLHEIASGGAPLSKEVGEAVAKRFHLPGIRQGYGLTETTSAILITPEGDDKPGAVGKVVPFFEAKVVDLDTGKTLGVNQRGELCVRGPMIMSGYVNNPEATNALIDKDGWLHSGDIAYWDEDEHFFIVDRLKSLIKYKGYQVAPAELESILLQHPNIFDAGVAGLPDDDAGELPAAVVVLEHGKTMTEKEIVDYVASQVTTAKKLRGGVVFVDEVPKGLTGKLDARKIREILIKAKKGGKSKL
The next test has as its system INS1. Kind of test: INS-1E survival protection against cytokine death – cell-based, luminescence, retest, dose response (AID 449756).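 Note: cell death triggered by IL-1 beta plus TNF-alpha plus IFN-gamma mixture; protective hits raise ATP signal compared with cytokine alone wells.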 Type of test: functional. Conditions: Rattus norvegicus.
The nature of test [7]: viability of PTEN-deleted HCT116 cells – cell-based, HCT116 PTEN knockout, dose response (AID 1047).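 Note: HCT116 colon tumor cells with PTEN knocked out; cells exposed to compound for 60 hours before readout; potency for loss of cell viability measured by luminescence.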 It counts as functional.
The target in test [8] is T4, Rac GTPase-activating protein 1 (Homo sapiens, UniProt Q9H0H5).
T4 sequence (Q9H0H5 whole entry): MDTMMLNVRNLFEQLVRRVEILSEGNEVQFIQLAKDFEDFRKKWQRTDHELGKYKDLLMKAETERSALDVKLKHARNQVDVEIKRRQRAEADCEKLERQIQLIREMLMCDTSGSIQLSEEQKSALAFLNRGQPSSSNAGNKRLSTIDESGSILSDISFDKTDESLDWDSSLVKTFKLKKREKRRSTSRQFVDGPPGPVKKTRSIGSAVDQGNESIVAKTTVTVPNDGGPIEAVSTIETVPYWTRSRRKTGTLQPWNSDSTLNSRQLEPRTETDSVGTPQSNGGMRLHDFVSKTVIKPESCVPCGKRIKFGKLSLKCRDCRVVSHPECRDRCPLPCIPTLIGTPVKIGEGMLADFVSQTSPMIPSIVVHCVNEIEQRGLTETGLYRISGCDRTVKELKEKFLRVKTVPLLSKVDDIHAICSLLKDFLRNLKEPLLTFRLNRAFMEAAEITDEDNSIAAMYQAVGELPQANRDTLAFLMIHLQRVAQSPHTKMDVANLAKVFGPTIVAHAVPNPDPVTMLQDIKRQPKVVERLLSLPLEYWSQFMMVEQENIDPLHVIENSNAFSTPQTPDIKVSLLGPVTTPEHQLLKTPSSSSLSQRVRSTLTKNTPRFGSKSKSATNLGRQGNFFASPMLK
Kind of test: blockers of MgcRacGAP-driven Rac1 GTP hydrolysis – biochemical, ADP Hunter fluorescence, primary and confirmatory, confirmation (AID 624330). It counts as functional.

For the next test, the target named is Paired box protein Pax-8 (Homo sapiens, UniProt Q06710). Kind of test: PAX8 transcriptional activity inhibition in RMG-I – RMG-I cells, luciferase, cherry-pick, dose response (AID 687027).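 Note: luciferase reporter driven by Pax8 target thyroperoxidase promoter measured by SteadyGlo luminescence.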 Type of test: functional, cell-based.
Sequence of Paired box protein Pax-8 (Q06710 whole entry): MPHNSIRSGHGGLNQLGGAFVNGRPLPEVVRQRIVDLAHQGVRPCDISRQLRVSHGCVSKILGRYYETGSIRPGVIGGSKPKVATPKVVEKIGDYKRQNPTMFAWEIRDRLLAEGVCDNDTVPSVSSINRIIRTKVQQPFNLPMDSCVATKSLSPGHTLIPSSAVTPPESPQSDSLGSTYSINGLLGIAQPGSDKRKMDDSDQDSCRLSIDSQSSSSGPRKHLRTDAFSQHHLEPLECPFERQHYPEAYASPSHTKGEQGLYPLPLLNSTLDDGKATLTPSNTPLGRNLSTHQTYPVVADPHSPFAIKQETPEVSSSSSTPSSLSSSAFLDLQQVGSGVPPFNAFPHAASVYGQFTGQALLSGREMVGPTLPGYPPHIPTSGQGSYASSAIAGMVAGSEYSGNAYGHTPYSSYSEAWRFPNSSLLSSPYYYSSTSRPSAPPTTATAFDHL

As usually defined, the IC50 is the concentration that inhibits the measured activity by half. As usually defined, the EC50 is the concentration that produces a half-maximal response. Consider `NS(=O)(=O)c1ccc(CCNC(=O)c2ccc(C#CC3(O)CCCCC3)cc2)cc1`, for which the IC50 in the test on H9c2 was > 79 µM (inactive). The EC50 in test [1] is 7.97 µM (active).

`CCN(CC)CCNC(=O)c1cc2c(s1)-c1ccccc1SC2`: the results for the EC50 in test [2] and in test [3] were 7.38 µM (active) and 2.27 µM (active), respectively. The IC50 in [4] was > 20 µM (inactive).

Regarding `COCCn1c(CCC(=O)O)nc2c1c(=O)[nH]c(=O)n2CC(C)C`, the IC50 on Protein skinhead-1 is > 100 µM (inactive).

Regarding `CCOC(=O)C1=C(c2ccccc2)O/C(=C(/C(=O)OC)C(F)(F)F)S1`, in test [4], the IC50 is > 20 µM (inactive).

Take `COc1cc2[nH]c(=S)n(CCN3CCCCC3C)c(=O)c2cc1OC` (configuration not stated): at Protein skinhead-1, the IC50 was > 100 µM (inactive).

In the case of `CCOc1ccc(CCNC(=O)c2oc3c(c2C)-c2n[nH]cc2CC3)cc1OCC`, the EC50 in test [5] and in test [6] was > 112 µM (not active) each time.

Regarding `Cc1c(C2=CCN(S(=O)(=O)c3ccc(Cl)cc3)CC2)c2ccccc2n1C`, the IC50 on Protein skinhead-1 was > 100 µM (inactive).

As usually defined, the AC50 is the concentration giving half of the maximal activity seen. Take `CC(C)CCCCCCN=C(S)Nc1ccc(S(=O)(=O)N2CCOCC2)cc1`: in the test on INS1, the AC50 is 7.7 µM (active). For the same molecule, the EC50 in test [7] is 77 µM (active).

Regarding `COc1ccc(NS(=O)(=O)c2cccc(-c3nnc(-c4ccccc4)o3)c2)cc1`, on Protein skinhead-1, the IC50 is > 100 µM (inactive).

`COc1ccc(C(O)CNc2ccc(C)cc2)cc1` (configuration not stated): the IC50 at Protein skinhead-1 is > 100 µM (inactive).

Consider `CCCc1cc(C(=O)Nc2ccc(Cl)cn2)cs1`, for which the IC50 at Protein skinhead-1 was > 100 µM (inactive).

As to `CCC1CCCN1Cn1cnc2c3cc(Cl)ccc3nc-2c1O` (configuration not stated), the values for the EC50 in test [5] and in test [6] were 48.3 µM (active) and > 112 µM (not active), respectively.

Consider `COc1ccc(CCNC(=O)Cn2c(=O)n(-c3ccc(C)c(F)c3)c(=O)c3sccc32)cc1OC`, for which the IC50 in test [4] was > 20 µM (inactive).

As to `CCOC(=O)C1CCN(C(=O)c2ccc3c(c2)S(=O)(=O)c2ccccc2C3=O)CC1`, on Protein skinhead-1, the IC50 is > 100 µM (inactive).

For `COc1ccc(C(=O)Nc2ccc3oc(-c4cccc(F)c4)nc3c2)cc1OC`, the IC50 in test [4] was > 20 µM (inactive).

`O=C(CN(c1cccc([N+](=O)[O-])c1)S(=O)(=O)c1ccccc1)NCc1ccccc1`: the EC50 in test [5] was 46.7 µM (active); in [6] it was > 112 µM (not active).

On to `COCCCN(C(=O)Cc1ccc(Cl)c(Cl)c1)c1c(N)n(Cc2ccccc2)c(=O)[nH]c1=O`, for which the EC50 in [5] and in test [6] was > 112 µM (not active) throughout.

For `CCN(CC)CCNC(=O)c1cc2c(=O)n(CC)c3ccccc3c2s1`, in test [4], the IC50 is > 20 µM (inactive).

In the case of `CCC[C@@H](CN1CCC[C@H]1CN1C(N)=NC[C@@H]1Cc1ccccc1)N1C[C@@H](Cc2ccccc2)N(CCc2ccc(Cl)c(Cl)c2)C1=N`, the IC50 in test [4] is > 20 µM (inactive).

With `Nn1c(=S)[nH]c2sc3c(c2c1=O)CCCC3`, the 50% inhibitory concentration (IC50) in test [8] is 74.3 µM (active); on Protein skinhead-1, > 100 µM (inactive).

Consider `O=C1CC(NNC(=O)c2ccc(Br)cc2)C(=O)N1` (configuration not stated), for which the IC50 at Protein skinhead-1 is > 100 µM (inactive).

As to `Cc1nonc1C(=O)N/N=C/c1cccc(O)c1`, the EC50 in test [5] is 4.56 µM (active); in [6] it was 13.5 µM (active).

For `O=C(Nc1ccccc1C(=O)N/N=C/c1ccco1)c1ccc(F)cc1`, the EC50 was 10.4 µM (active) in [5] and 0.295 µM (active) in test [6].

`C[C@H]1CCCCO[C@H](CN(C)C(=O)Nc2ccc(C(F)(F)F)cc2)[C@@H](C)CN([C@@H](C)CO)C(=O)c2cc(NC(=O)c3ccncc3)ccc2O1`: the AC50 at Paired box protein Pax-8 is 17.1 µM (active).

Turning to `CC/C(=N\NC(=O)Nc1ccccc1)c1ccccc1`, the EC50 in test [5] and in test [6] was > 112 µM (not active) each time.

The values above are taken from ChEMBL document CHEMBL1201862, “PubChem BioAssay data set” (2004).
